Source: US20100035843A1, “METHODS FOR ATTENUATING ALLERGEN-INDUCED AIRWAY HYPERREACTIVITY USING CD1D DEPENDENT ANTAGONISTS” (THE GENERAL HOSPITAL CORPORATION, priority 2007, published 2010)

How the values were obtained:
[1] = test system: contact hypersensitivity (CHS); details: Nieuwenhuis et al.; cited from earlier work
iNKT cell = details: references 2-5; cited from earlier work
[2] = test system: iNKT cell hybridoma line DN32; assay: DN32 NKT hybridoma activation by α-GalCer, IL-2 release read with CTLL-2 cells; type: cell-based; details: 200 μg/ml for 4 hours, then titrating α-GalCer 48 h; particularly at suboptimal α-GalCer (FIG. 1C)
Protocol: Culture supernatants were collected and IL-2 expression expression analyzed with IL-2 dependant cell line CTLL-2. Data are means±SD of triplicate cultures.
Phosphatidylethanolamine and DPPE-PEG bind to CD1d and prevent iNKT cell activation (2-5). To determine whether activation of iNKT cells by α-GalCer could specifically be inhibited by DPPE-PEG, splenocytes were incubated with α-GalCer (100 ng/ml) or plate-bound anti-CD3. […] FIGS. 1A and 1B show splenocyte cells (5×10^6/ml) pooled from BALB/cJ mice (n=4) that were cultured in anti-CD3 mAb (2 μg/ml)-precoated 24-well plates in complete RPMI±increasing concentrations of DPPE-PEG350, or that were cultured in 24-well plates in complete RPMI±α-GalCer (100 ng/ml)±increasing concentrations of DPPE-PEG350. After 48 h, supernatants were gathered and examined for IL-4 and INF-γ by ELISA. ELISA data are representative of three separate experiments each and are shown as mean±SD for triplicate samples. […] Culture supernatants were collected and IL-2 expression expression analyzed with IL-2 dependant cell line CTLL-2. Data are means±SD of triplicate cultures.
We also tested the ability of DPPE-PEG350 to block the iNKT cell hybridoma line DN32, activation by α-GalCer. DN32 cells were loaded with 200 μg/ml of DPPE-PEG, and stimulated with titrating dose of α-GalCer. […]

[3] = test system: α-GalCer-stimulated iNKT cells; assay: Inhibition of in vitro iNKT activation: splenocytes stimulated with α-GalCer, cytokine ELISA; type: cell-based, BALB/cJ mice
Protocol: (§1) FIGS. 1A and 1B show splenocyte cells (5×10^6/ml) pooled from BALB/cJ mice (n=4) that were cultured in anti-CD3 mAb (2 μg/ml)-precoated 24-well plates in complete RPMI±increasing concentrations of DPPE-PEG350, or that were cultured in 24-well plates in complete RPMI±α-GalCer (100 ng/ml)±increasing concentrations of DPPE-PEG350. After 48 h, supernatants were gathered and examined for IL-4 and INF-γ by ELISA. ELISA data are representative of three separate experiments each and are shown as mean±SD for triplicate samples.
(§2) Inhibition of in vitro iNKT activation with DPPE-PEG-Splenocytes cells (5×10^6/ml) pooled from BALB/cJ mice (n=4) were cultured in anti-CD3 mAb (2 μg/ml)-precoated 24-well plates in complete RPMI±increasing concentrations of DPPE-PEG350, or cultured in 24-well plates in complete RPMI±KRN7000 (100 ng/ml)±increasing concentrations of DPPE-PEG350. After 48 h, supernatants were gathered and examined for IL-4 and INF-γ by ELISA as described (35).
(§3) Phosphatidylethanolamine and DPPE-PEG bind to CD1d and prevent iNKT cell activation (2-5). To determine whether activation of iNKT cells by α-GalCer could specifically be inhibited by DPPE-PEG, splenocytes were incubated with α-GalCer (100 ng/ml) or plate-bound anti-CD3. […] Culture supernatants were collected and IL-2 expression expression analyzed with IL-2 dependant cell line CTLL-2. […]

[4] = test system: anti-CD3 activated T cells; assay: Splenocytes cultured on plate-bound anti-CD3 mAb, cytokine ELISA; type: cell-based, BALB/cJ mice; details: plate-bound anti-CD3 2 μg/ml, at concentrations that significantly inhibited α-GalCer-stimulated secretion
Protocol: as §1, §2, §3

[5] = test system: OVA-specific Th2 responses; assay: Restimulation of bronchial lymph node cells of treated mice with OVA in vitro, cytokine ELISA; type: in vivo, BALB/c mice
Protocol: Bronchial lymph nodes were removed from Peg treated or PBS treated mice and restimulated with 100 μg of OVA in vitro. After 72 hrs supernatants were collected and cytokine production analyzed by ELISA. ELISA data are representative of three separate experiments (n=4) and are shown as mean±SD for triplicate samples. Restimulation of lymph node cells in vitro. Cells isolated from lymph nodes of OVA-primed mice were restimulated in vitro (5×10^5 cells per well in a 96-well plate) with various concentrations of OVA. Supernatants were collected after 4 days and assayed for IL-4 and IFN-γ by ELISA as previously described (15). Cytokine ELISAs—Cytokine secretion following in vitro challenge with OVA and control peptides were determined by ELISA as described before (15). Briefly, the following monoclonal antibodies R4-6A2 and XMG1.2-biotin for IFN-γ and 11B11 and BVD6-24G2-biotin for IL-4 were used for capture and detection. […] Bronchial lymph nodes were removed from Peg treated or PBS treated mice and restimulated with 100 μg of OVA in vitro. After 72 hrs supernatants were collected and cytokine production analyzed by ELISA. ELISA data are representative of three separate experiments (n=4) and are shown as mean±SD for triplicate samples. Since treatment with DPPE-PEG350 inhibited the development of AHR, we next asked if administration of the CD1d-dependent antagonist prior to airway challenge altered systemic OVA-specific Th2 responses. Bronchial lymph node cells were isolated from OVA sensitized mice treated with either DPPE-PEG350 or PBS, and restimulated in vitro with 100 μg/ml of ovalbumin a day after induction of AHR. […] No OVA-specific cytokine secretion was seen if the animals had not been sensitized with OVA on day 0 (data not shown).

CD1d = details: references 2-5; cited from earlier work
OVA-induced AHR = assay: OVA-induced model of airway hyperreactivity (AHR); type: in vivo, BALB/c mice; details: for number of cells (eosinophils, lymphocytes, macrophages) in BAL fluid: versus OVA-immunized control group, BAL 3 h after airway measurements (FIG. 2D); for histological examination of H&E-stained lung sections: OVA-immunized mice, compared with saline (negative) control (data not shown); for development of methacholine-induced AHR (PenH, whole-body plethysmograph): single dose 250 μg i.v., 1 day before OVA challenge, OVA-immunized mice (FIG. 2B)
Protocol: DPPE (250 μg) was injected i.v. on day 8 and AHR was measured on day 12. Reagents. Anti-CD3 mAb was purchased from BD PharMingen (San Diego, Calif.). α-Galactosylceramide (α-[…]7000) was purchased from Axxora LLC (San Diego, Calif.). DPPE-PEG. (1,2-Dipalmitoyl-sn-Glycero-3-Phosphoethanolamine-N-[Methoxy(Polyethylene glycol)-350]) (Ammonium Salt) (PEG350) was purchased from Avanti Polar Lipids, INC (Alabaster, Ala.). We thank A. Bendelac for the DN32.D3 hybridoma cells. To induce AHR, mice were immunized intraperitoneally with 50 μg of LPS free OVA (Worthington Biochemical Corp., NJ) in 2 mg of alum in volume of 0.5 ml. Ten days later mice were lightly anesthetized with methoxoflurane and challenged with i.n. OVA (50 μg) on 3 consecutive days. Induction of AHR and measurement of airway responsiveness-AHR responses were assessed by methacholine-induced airflow obstruction in conscious mice placed in a whole-body plethysmograph (Buxco Electronics, Troy, N.Y.) as described previously 15. In some experiments AHR was assessed by invasive measurement of airway resistance, in which anesthetized and tracheostomized mice were mechanically ventilated using a modified version of a described method 36. Aerosolized methacholine was administered for 20 breaths in increasing concentrations (1.25, 2.5, 5 and 10 mg/ml of methacholine). We continuously computed RL and Cdyn by fitting flow, volume and pressure to an equation of motion. Collection and analysis of BAL fluid-Mice were lethally anesthetized with phenobarbital 450 mg/kg i.p. The trachea was cannulated and the lungs were lavaged three times with 0.3 ml of PBS, and the collected fluid was pooled. Cell counts and analysis of the BAL was performed as described (15). […] In this model, an asthma-like phenotype with AHR, eosinophilic airway inflammation and mucus hypersecretion is induced by systemic sensitization with OVA followed by intrapulmonary challenge with OVA (FIG. 2A).

[6] = bronchial lymph node cells, 100 μg/ml ovalbumin, versus PBS treated group (FIG. 3)

Row | Compound | dermatitis in the CHS model [1] | iNKT cell activation (iNKT cell) | IL-2 release from DN32 iNKT cells [2] | secretion of IL-4 by α-GalCer-stimulated iNKT cells ([3]; splenocytes, α-GalCer 100 ng/ml, increasing concentrations of DPPE-PEG, 48 h, ELISA (FIG. 1A/1B)) | iNKT cells cytokine release compared to anti-CD3 activated T cells (preference) ([3]; α-GalCer-stimulated versus anti-CD3-stimulated splenocytes (FIGS. 1A and B)) | cytokine production by anti-CD3 activated T cells [4] | IL-4 secretion to OVA recall [5, 6] | IL-5 secretion to OVA recall [5, 6] | IL-13 secretion to OVA recall [5, 6] | ova-specific secretion of IFN-γ after in vitro re-challenge ([5]; sensitized and DPPE-PEG treated animals) | binding to CD1d (CD1d) | AHR by direct measurement of airway resistance (RL) and dynamic compliance (Cdyn) (OVA-induced AHR; 250 μg i.v., anesthetized, tracheostomized, mechanically ventilated mice (FIG. 2C)) | number of cells (eosinophils, lymphocytes, macrophages) in BAL fluid (OVA-induced AHR; 250 μg i.v.) | histological examination of H&E-stained lung sections (OVA-induced AHR) | development of methacholine-induced AHR (PenH, whole-body plethysmograph) (OVA-induced AHR) | development of OVA specific Th2 responses ([5]; bronchial lymph nodes restimulated with 100 μg of OVA, 72 hrs (FIG. 3))
1 | 1,2-Dipalmitoyl-sn-Glycero-3-Phosphoethanolamine-N-[Methoxy(Polyethylene glycol)-350] [DPPE-PEG350] | blocked | prevent | inhibited | inhibited | preferentially inhibited | no or minimal effect | No significant difference | No significant difference | No significant difference | did not affect | bind | confirmed | significantly reducing | no significant differences | completely prevented | –
2 | CCCCCCCCCCCCCCCC(=O)OC[C@H](COP(=O)(O)OCCN)OC(=O)CCCCCCCCCCCCCCC [DPPE, 1,2-Dipalmitoyl-sn-Glycero-3-Phosphoethanolamine] | – | – | – | – | – | – | – | – | – | – | – | – | almost completely abrogated | minimal mucus production and negligible cellular infiltration | completely inhibited | does not inhibit
3 | Phosphatidylethanolamine [reference compound] | – | prevent | – | – | – | – | – | – | – | – | bind | – | – | – | – | –
